Experimental data: patent publication US10415054B2, “Designer circuit controlling diet-induced obesity” (ETH ZURICH, priority 2013, dated 2019)

Key:
[1] = target: T1, lipid-sensing receptor (LSR; TtgR-PPARα) (UniProt Q07869+Q9AIU0); assay: Fatty acid/fibrate-controlled SEAP expression in pKR135/pMG10-transgenic HT-1080; format: cell-based, human; settings: for sensitivity of LSR (SEAP expression): pKR135/pMG10-transgenic HT-1080, 48 h, FIG. 3d,e
T1 construct: TtgR (phloretin-responsive repressor of Pseudomonas putida DOT-T1E); expressed in transfected cells; host or cells: HT-1080 (A1, A5; in A5 microencapsulated and implanted into mice); several rodent, primate and human cell lines (A2)
T1 sequence (Q9AIU0+Q07869 with tags, fused parts or gaps): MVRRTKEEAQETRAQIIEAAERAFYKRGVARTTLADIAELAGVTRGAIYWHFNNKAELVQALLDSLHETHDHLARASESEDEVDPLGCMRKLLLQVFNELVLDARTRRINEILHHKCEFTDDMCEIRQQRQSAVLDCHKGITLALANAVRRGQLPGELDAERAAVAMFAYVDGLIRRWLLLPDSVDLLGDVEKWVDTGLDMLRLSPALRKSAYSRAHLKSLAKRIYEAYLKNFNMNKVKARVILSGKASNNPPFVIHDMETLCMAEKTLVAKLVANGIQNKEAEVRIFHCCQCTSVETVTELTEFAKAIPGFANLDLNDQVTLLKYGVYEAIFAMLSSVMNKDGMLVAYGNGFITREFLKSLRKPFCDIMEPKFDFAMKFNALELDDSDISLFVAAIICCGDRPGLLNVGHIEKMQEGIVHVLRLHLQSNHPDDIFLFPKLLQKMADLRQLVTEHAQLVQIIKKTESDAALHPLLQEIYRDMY
Experimental: Wild-type Chinese hamster ovary cells (CHO-K1, ATCC: CCL-61) were cultured in ChoMaster® HTS (Cell Culture Technologies GmbH, Gravesano, Switzerland) containing 1% penicillin/streptomycin. All cell types were cultivated at 37° C. in a humidified atmosphere containing 5% CO2. […] After transfection, all cells were cultivated in their specific media containing different inducer concentrations and reporter protein levels were profiled after 48 h unless stated otherwise. […]

LSR sensor device = target: T2, LSR sensor device (UniProt Q07869+Q9AIU0); assay: Serum SEAP in wild type mice implanted with microencapsulated pKR135/pMG10-transgenic HT-1080; format: in vivo; settings: wild type mice on standard diet, 48 h, FIG. 4a,b
T2 construct: TtgR (phloretin-responsive repressor of Pseudomonas putida DOT-T1E); expressed in transfected cells; host or cells: HT-1080 (A1, A5; in A5 microencapsulated and implanted into mice); several rodent, primate and human cell lines (A2)
T2 sequence (Q9AIU0+Q07869 with tags, fused parts or gaps): T1 sequence (Q9AIU0+Q07869 with tags, fused parts or gaps)
Excerpt: (a-d) Standard low fat-fed wild type mice were implanted with microencapsulated pKR135-/pMG10-transgenic HT-1080 (2×10^6 cells/mouse) and received different doses of linoleic acid (LA) and palmitic acid (PA) (fatty acids, FA) (a), rapeseed oil (RO) (b) or were put on standard low fat (LF, 5 kcal % fat), medium fat (MF, 10 kcal % fat) and high fat (HF, 60 kcal % fat) diets (D) (c, d). Resulting blood SEAP (bSEAP) levels (a, b, d) and blood fat levels (BF) represented by serum cholesterol (C) and phospholipid (PL) concentrations (c) were quantified after 48 h (a, b, d) or 72 h (c). Data are mean±SEM, statistics by two-tailed t test; n=8 mice. *P<0.05, **P<0.005, ***P<0.0001 vs. zero lipid doses (a,b) or LF mice (c,d).
Production of the human placental secreted alkaline phosphatase (SEAP) in culture was quantified according to a p-nitrophenylphosphate-based time course of light absorbance (Schlatter S. et al., Gene 282, 19-31 (2002)). Serum levels of SEAP were quantified using a chemiluminescence-based assay (Roche Diagnostics GmbH, Mannheim, Germany). […]

TtgA1 (TtgR-VP16) = target: T3, TtgA1 (TtgR-VP16) (Pseudomonas putida, UniProt Q9AIU0); assay: Phloretin-responsive gene switch (pMG10/pMG11) in HT-1080 exposed to linoleic acid; format: cell-based; settings: HT-1080 pMG10/pMG11, 48 h, FIG. 6
T3 construct: expressed in transfected cells; host or cells: HT-1080
Experimental: HT-1080 were cotransfected with the components encoding the phloretin-responsive gene switch (pMG10, (PTtgR1-SEAP-pA) and pMG11, (PSV40-TtgA1-pA)) and grown for 48 h in the presence of increasing linoleic acid (LA) concentrations before SEAP was profiled in the cell culture supernatant.
(§1) Human embryonic kidney cells (HEK-293T, ATCC: CRL-11268), Baby hamster kidney cells (BHK-21, ATCC: CCL-10), African green monkey kidney cells (COS-7, ATCC: CRL-1651), human cervical adenocarcinoma cells (HeLa, ATCC: CCL-2), human fibrosarcoma cells (HT-1080, ATCC: CCL-121) and immortalized human mesenchymal stem cells (hMSC) (Simonsen, J. L. et al., Nat Biotechnol 20, 592-596 (2002)) were cultivated in Dulbecco's modified Eagle's medium (DMEM; Invitrogen, Basel, Switzerland) supplemented with 1% (v/v) penicillin/streptomycin solution (Sigma-Aldrich, Munich, Germany). Wild-type Chinese hamster ovary cells (CHO-K1, ATCC: CCL-61) were cultured in ChoMaster® HTS (Cell Culture Technologies GmbH, Gravesano, Switzerland) containing 1% penicillin/streptomycin. […]
(§2) Production of the human placental secreted alkaline phosphatase (SEAP) in culture was quantified according to a p-nitrophenylphosphate-based time course of light absorbance (Schlatter S. et al., Gene 282, 19-31 (2002)). Serum levels of SEAP were quantified using a chemiluminescence-based assay (Roche Diagnostics GmbH, Mannheim, Germany).

[2] = target: T1, lipid-sensing receptor (LSR; TtgR-PPARα); assay: Linoleic acid-induced SEAP expression in different cell lines cotransfected with pKR135/pMG10; format: cell-based; settings: several rodent, primate and human cell lines, 48 h, FIG. 2
Experimental: Linoleic acid-induced SEAP expression in different cell lines. Cells were cotransfected with the LSR-encoding expression vector (pKR135; PhCMV-LSR-pA) and the PTtgR1-driven SEAP expression plasmid (pMG10; […]), grown in the presence of different linoleic acid (LA) concentrations, and SEAP levels were profiled in the culture supernatant after 48 h.
as §1, with “Germany).” for “Germany). Wild-type Chinese hamster ovary cells (CHO-K1, ATCC: CCL-61) were cultured in ChoMaster® HTS (Cell Culture Technologies GmbH, Gravesano, Switzerland) containing 1% penicillin/streptomycin.”
as §2

Cc1cccc(Nc2cc(Cl)nc(SCC(=O)O)n2)c1C [WY-14643]
sensitivity of LSR (SEAP expression) [1]: sensitive

CCCCC/C=C\C/C=C\C/C=C\C/C=C\CCCC(=O)O [arachidonic acid]
sensitivity of LSR (SEAP expression) [1]: sensitive

Cc1ccc(C)c(OCCCC(C)(C)C(=O)O)c1 [gemfibrozil]
sensitivity of LSR (SEAP expression) [1]: sensitive

CCCCCCCCCCCC(=O)O [lauric acid]
sensitivity of LSR (SEAP expression) [1]: sensitive

CCCCC/C=C\C/C=C\CCCCCCCC(=O)O [linoleic acid]
SEAP in serum (LSR sensor device): significant dose-dependent increase
sensitivity of LSR (SEAP expression) [1]: sensitive
sensitivity of the phloretin-responsive control element (SEAP) (TtgA1 (TtgR-VP16)): Insensitivity
SEAP induction [2]: SEAP was exclusively induced

CCCCCCCCCCCCCC(=O)O [myristic acid]
sensitivity of LSR (SEAP expression) [1]: sensitive

CCCCCCCC/C=C\CCCCCCCC(=O)O [oleic acid]
sensitivity of LSR (SEAP expression) [1]: sensitive

CCCCCCCCCCCCCCCC(=O)O [palmitic acid]
SEAP in serum (LSR sensor device): significant dose-dependent increase
sensitivity of LSR (SEAP expression) [1]: sensitive

O=C(CCc1ccc(O)cc1)c1c(O)cc(O)cc1O [phloretin]
phloretin-triggered effect on fatty acid-induced transgene (SEAP) expression ([1]; HT-1080 induced by 100 μM linoleic acid, 48 h, FIG. 3c): shut down transgene expression

CCCCCCCCCCCCCCCCCC(=O)O [stearic acid]
sensitivity of LSR (SEAP expression) [1]: sensitive
